The values that follow come from patent US12172969B2 (EVOFEM BIOSCIENCES, INC., priority 2018, dated 2024).

One data set addresses T1, cDNA-expressed CYP2C8 (Homo sapiens, UniProt P10632).
T1 sequence (P10632 1-490): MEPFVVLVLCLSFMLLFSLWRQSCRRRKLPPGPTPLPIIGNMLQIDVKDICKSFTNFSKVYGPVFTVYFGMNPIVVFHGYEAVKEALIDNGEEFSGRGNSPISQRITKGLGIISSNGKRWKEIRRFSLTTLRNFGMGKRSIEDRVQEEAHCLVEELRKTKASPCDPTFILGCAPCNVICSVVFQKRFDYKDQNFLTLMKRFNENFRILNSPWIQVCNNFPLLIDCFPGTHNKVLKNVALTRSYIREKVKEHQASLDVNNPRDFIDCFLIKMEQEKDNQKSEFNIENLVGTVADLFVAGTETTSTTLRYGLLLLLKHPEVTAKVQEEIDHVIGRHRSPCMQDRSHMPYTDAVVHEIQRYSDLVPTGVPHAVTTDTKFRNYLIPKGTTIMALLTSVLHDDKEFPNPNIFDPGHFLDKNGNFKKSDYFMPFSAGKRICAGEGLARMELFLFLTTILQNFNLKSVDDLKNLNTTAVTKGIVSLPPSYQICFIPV
Kind of data set: Metabolism by cDNA-expressed CYP2C8, parent remaining. Particulars: 10 μM; for depletion by cDNA-expressed CYP2C8: 120 minutes. Here is the method: (§1) At two time points (0 and 120 min), the reaction was stopped by removing an aliquot and combining it with an equal volume of cold acetonitrile containing an internal standard (labetalol) and placement on ice. Samples were centrifuged to pellet the protein and the supernatant was frozen at −20° C. for subsequent analysis by LC-MS/MS.
(§2) Protein concentrations were constant for all isoforms within an experiment and standardized by the addition of control microsomes. Incubations were performed in duplicate. Incubations with vector control enzyme preparations and without enzyme source were included as negative controls.
(§3) The fraction of parent compound remaining compared to 0 min was determined based on peak area ratio (analyte/internal standard).

A further data set concerns the target cDNA-expressed CYP2C9 (Homo sapiens, UniProt P11712). Kind of data set: Metabolism by cDNA-expressed CYP2C9, parent remaining. Particulars: 10 μM; for depletion by cDNA-expressed CYP2C9: 120 minutes. The method, then: as §1, §2, §3
The conditions of data set [1]: in vivo; cited from earlier work.
Data set [2] has as its system cDNA-expressed CYP1A2, CYP2A6, CYP2B6, CYP2C8, CYP2C9, CYP2C19, CYP2D6, CYP2E1, CYP3A4, and CYP3A5. The data set can be described thus: Metabolism by cDNA-expressed human CYP enzymes (all isoforms), parent remaining by LC-MS/MS. Particulars: 1.0 μM and 10 μM, 120 minutes incubation, 37° C., compared to 0 min. Here is the method: as §1, §2
All other positive controls were assayed at one concentration in duplicate in accordance with the methods described above. The percent of parent remaining at the end of the incubation was compared to 0 min based on the peak area ratio of the substrate and internal standard.
as §3

Chain of cDNA-expressed CYP2C9 (P11712 whole entry): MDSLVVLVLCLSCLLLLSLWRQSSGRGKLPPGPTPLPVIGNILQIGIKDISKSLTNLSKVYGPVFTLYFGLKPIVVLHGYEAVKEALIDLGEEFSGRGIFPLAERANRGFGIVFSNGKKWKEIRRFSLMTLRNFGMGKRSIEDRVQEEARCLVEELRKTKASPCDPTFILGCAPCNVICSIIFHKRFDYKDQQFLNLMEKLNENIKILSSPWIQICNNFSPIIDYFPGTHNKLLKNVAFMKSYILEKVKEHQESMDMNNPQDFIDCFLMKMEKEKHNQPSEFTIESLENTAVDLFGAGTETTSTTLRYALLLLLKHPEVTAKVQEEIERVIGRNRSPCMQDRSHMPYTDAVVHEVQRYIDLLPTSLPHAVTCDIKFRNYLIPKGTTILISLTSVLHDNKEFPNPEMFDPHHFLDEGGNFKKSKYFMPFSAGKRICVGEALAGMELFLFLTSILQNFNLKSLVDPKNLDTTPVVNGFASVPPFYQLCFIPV

As for `Cc1ncc([N+](=O)[O-])n1CC(C)O` (stereo not drawn) [secnidazole, 1-(2-methyl-5-nitro-1H-imidazol-1-yl) propan-2-ol, reference compound], the “percent of parent remaining” value at cDNA-expressed CYP2C8 (human, 2 h, pH 7.4) is 82%; at cDNA-expressed CYP2C9 (human, 2 h, pH 7.4), 79%. In addition, the “excreted intact in the urine” value in data set [1] is on record as 50%.
Regarding “α,2-dimethyl-5-nitro-1H-imidazole-1-ethanol-d3 [secnidazole-d3]”, the “depletion by cDNA-expressed CYP2C8” value at cDNA-expressed CYP2C8 is “did not demonstrate any depletion”. The “depletion by cDNA-expressed CYP2C9” value at cDNA-expressed CYP2C9 is on record as “did not demonstrate any depletion”. Besides, in data set [2], the “average percent of parent compound remaining for all isoforms and concentrations” value is recorded as “greater than 96%”.
As for “α,2-dimethyl-5-nitro-1H-imidazole-1-ethanol-d6 [secnidazole-d6]”, the “depletion by cDNA-expressed CYP2C8” value at cDNA-expressed CYP2C8 was “did not demonstrate any depletion”. Besides, the “depletion by cDNA-expressed CYP2C9” value at cDNA-expressed CYP2C9 was “did not demonstrate any depletion”. Further, the “average percent of parent compound remaining for all isoforms and concentrations” value in data set [2] is “less than 100%”.
